Measurements from PubChem BioAssay (NCI).
“And” between values parts separate entries of the source, which are not always exact repeats. Equal values may be shown once.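 1) Cells in 96-well plates. 2) Compound, 48 h, 5 concentrations. 3) Linear interpolation between surrounding doses. 4) Unreached endpoint = highest concentration. GI50 is the concentration that inhibits growth by half. The concentration for full growth arrest is given as TGI.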 The source made the active and inactive calls. Cut-off read from the data, not from the text of the source: active = GI50 below about 0.43 µM; inactive = the rest.

Legend:
Experiment in all cases: NCI anticancer screen, dose series, 48 h
EKVX NSCLC = test system: EKVX NSCLC
RXF 393 renal = test system: RXF 393 renal
SR leukemia = test system: SR leukemia
SF-539 CNS = test system: SF-539 CNS
SNB-75 CNS = test system: SNB-75 CNS
NCI-H522 lung = test system: NCI-H522 lung
RPMI-8226 leukemia = test system: RPMI-8226 leukemia
SNB-78 CNS = test system: SNB-78 CNS
SNB-19 CNS = test system: SNB-19 CNS
DMS 114 small cell lung = test system: DMS 114 small cell lung
SF-268 CNS = test system: SF-268 CNS
XF 498 CNS = test system: XF 498 CNS
HOP-92 NSCLC = test system: HOP-92 NSCLC
MOLT-4 leukemia = test system: MOLT-4 leukemia
HOP-62 NSCLC = test system: HOP-62 NSCLC
OVCAR-8 ovarian = test system: OVCAR-8 ovarian
ACHN renal = test system: ACHN renal
HCT-116 colon = test system: HCT-116 colon
NCI-H23 lung = test system: NCI-H23 lung
SN12C renal = test system: SN12C renal
UO-31 renal = test system: UO-31 renal
NCI-H460 lung = test system: NCI-H460 lung
NCI-H226 lung = test system: NCI-H226 lung
OVCAR-3 ovarian = test system: OVCAR-3 ovarian
DLD-1 colon = test system: DLD-1 colon
HOP-18 NSCLC = test system: HOP-18 NSCLC
UACC-257 melanoma = test system: UACC-257 melanoma
A549 NSCLC = test system: A549 NSCLC
SK-OV-3 ovarian = test system: SK-OV-3 ovarian
DMS 273 small cell lung = test system: DMS 273 small cell lung
HCT-15 colon = test system: HCT-15 colon
U251 CNS = test system: U251 CNS
KM12 colon = test system: KM12 colon
SK-MEL-5 melanoma = test system: SK-MEL-5 melanoma
UACC-62 melanoma = test system: UACC-62 melanoma
SK-MEL-2 melanoma = test system: SK-MEL-2 melanoma
SF-295 CNS = test system: SF-295 CNS
LXFL 529 NSCLC = test system: LXFL 529 NSCLC
M19-MEL melanoma = test system: M19-MEL melanoma
SW-620 colon = test system: SW-620 colon
OVCAR-5 ovarian = test system: OVCAR-5 ovarian
KM20L2 colon = test system: KM20L2 colon
OVCAR-4 ovarian = test system: OVCAR-4 ovarian
M14 melanoma = test system: M14 melanoma
HL-60(TB) leukemia = test system: HL-60(TB) leukemia
HT29 colon = test system: HT29 colon
786-0 renal = test system: 786-0 renal
TK-10 renal = test system: TK-10 renal
CCRF-CEM leukemia = test system: CCRF-CEM leukemia
LOX IMVI melanoma = test system: LOX IMVI melanoma
K-562 leukemia = test system: K-562 leukemia
MALME-3M melanoma = test system: MALME-3M melanoma
CAKI-1 renal = test system: CAKI-1 renal
COLO 205 colon = test system: COLO 205 colon
SK-MEL-28 melanoma = test system: SK-MEL-28 melanoma
IGROV1 ovarian = test system: IGROV1 ovarian
A498 renal = test system: A498 renal
HCC-2998 colon = test system: HCC-2998 colon

## CCOC(=O)c1sc2c(C(=O)OCC)n3ccccc3c2c1N
EKVX NSCLC
  GI50: 70 µM
RXF 393 renal
  TGI: 50 µM
SR leukemia
  outcome: inactive
SF-539 CNS
  GI50: 22.3 µM
  TGI: 75.4 µM
SNB-75 CNS
  TGI: 99.1 µM
NCI-H522 lung
  GI50: 24.3 µM
  TGI: 63 µM and 68 µM
RPMI-8226 leukemia
  outcome: inactive
SNB-78 CNS
  GI50: 27.3 µM
SNB-19 CNS
  GI50: 23.9 µM
  TGI: 90.9 µM and 65.5 µM
DMS 114 small cell lung
  GI50: 47.5 µM
SF-268 CNS
  GI50: 36.6 µM
XF 498 CNS
  GI50: 33.9 µM
  TGI: 48 µM
HOP-92 NSCLC
  GI50: 23.8 µM
  TGI: 55.2 µM
MOLT-4 leukemia
  outcome: inactive
HOP-62 NSCLC
  GI50: 22.5 µM
  TGI: 57.3 µM and 70.7 µM
OVCAR-8 ovarian
  GI50: 52.1 µM
ACHN renal
  GI50: 89.4 µM
HCT-116 colon
  GI50: 35.9 µM
NCI-H23 lung
  GI50: 74.2 µM
SN12C renal
  GI50: 73.5 µM
UO-31 renal
  GI50: 49.2 µM
  TGI: 67.1 µM

## O=C(c1ccco1)N(C(=S)N1CCN(c2ccccc2)CC1)c1ccccc1
NCI-H460 lung
  TGI: > 100 µM
NCI-H226 lung
  TGI: > 100 µM
RXF 393 renal
  TGI: > 100 µM
OVCAR-3 ovarian
  TGI: > 100 µM
SR leukemia
  TGI: > 100 µM
DLD-1 colon
  TGI: > 100 µM
SF-539 CNS
  TGI: > 100 µM
SNB-75 CNS
  TGI: > 100 µM
NCI-H522 lung
  TGI: > 100 µM
HOP-18 NSCLC
  TGI: > 100 µM
UACC-257 melanoma
  TGI: > 100 µM
A549 NSCLC
  TGI: > 100 µM
SK-OV-3 ovarian
  TGI: > 100 µM
RPMI-8226 leukemia
  TGI: > 100 µM
SNB-78 CNS
  TGI: > 100 µM
DMS 273 small cell lung
  TGI: > 100 µM
HCT-15 colon
  TGI: > 100 µM
U251 CNS
  TGI: > 100 µM
KM12 colon
  TGI: > 100 µM
SNB-19 CNS
  TGI: > 100 µM
DMS 114 small cell lung
  TGI: > 100 µM
SK-MEL-5 melanoma
  TGI: > 100 µM
SF-268 CNS
  TGI: > 100 µM
UACC-62 melanoma
  TGI: > 100 µM
HOP-92 NSCLC
  TGI: > 100 µM
SK-MEL-2 melanoma
  TGI: > 100 µM
SF-295 CNS
  TGI: > 100 µM
MOLT-4 leukemia
  TGI: > 100 µM
LXFL 529 NSCLC
  TGI: > 100 µM
M19-MEL melanoma
  TGI: > 100 µM
SW-620 colon
  TGI: > 100 µM
HOP-62 NSCLC
  TGI: > 100 µM
OVCAR-8 ovarian
  TGI: > 100 µM
ACHN renal
  TGI: > 100 µM
OVCAR-5 ovarian
  TGI: > 100 µM
KM20L2 colon
  TGI: > 100 µM
HCT-116 colon
  TGI: > 100 µM
OVCAR-4 ovarian
  TGI: > 100 µM
M14 melanoma
  TGI: > 100 µM
HL-60(TB) leukemia
  TGI: > 100 µM
HT29 colon
  TGI: > 100 µM
786-0 renal
  TGI: > 100 µM
TK-10 renal
  TGI: > 100 µM
CCRF-CEM leukemia
  TGI: > 100 µM
LOX IMVI melanoma
  TGI: > 100 µM
NCI-H23 lung
  TGI: > 100 µM
K-562 leukemia
  TGI: > 100 µM
SN12C renal
  TGI: > 100 µM
UO-31 renal
  TGI: > 100 µM
MALME-3M melanoma
  TGI: > 100 µM
CAKI-1 renal
  TGI: > 100 µM
COLO 205 colon
  TGI: > 100 µM
SK-MEL-28 melanoma
  TGI: > 100 µM
IGROV1 ovarian
  TGI: > 100 µM

## CC1=C2N3C[C@@H](n4c(=O)n(C)c(=O)n43)C23CCC1n1c(=O)n(C)c(=O)n13
EKVX NSCLC
  TGI: > 100 µM
NCI-H460 lung
  TGI: > 100 µM
NCI-H226 lung
  TGI: > 100 µM
A498 renal
  TGI: > 100 µM
DLD-1 colon
  TGI: > 100 µM
SF-539 CNS
  TGI: > 100 µM
SNB-75 CNS
  TGI: > 100 µM
HOP-18 NSCLC
  TGI: > 100 µM
UACC-257 melanoma
  TGI: > 100 µM
RPMI-8226 leukemia
  TGI: > 100 µM
SNB-78 CNS
  TGI: > 100 µM
DMS 273 small cell lung
  TGI: > 100 µM
HCT-15 colon
  TGI: 52.8 µM
KM12 colon
  TGI: > 100 µM
SNB-19 CNS
  TGI: > 100 µM
DMS 114 small cell lung
  TGI: 76.3 µM
SK-MEL-5 melanoma
  TGI: > 100 µM
SF-268 CNS
  TGI: > 100 µM
XF 498 CNS
  TGI: > 100 µM
UACC-62 melanoma
  TGI: > 100 µM
HCC-2998 colon
  TGI: > 100 µM
SF-295 CNS
  TGI: > 100 µM
MOLT-4 leukemia
  TGI: > 100 µM
LXFL 529 NSCLC
  TGI: > 100 µM
M19-MEL melanoma
  TGI: > 100 µM
SW-620 colon
  TGI: 54.8 µM
HOP-62 NSCLC
  TGI: > 100 µM
OVCAR-8 ovarian
  TGI: > 100 µM
ACHN renal
  TGI: > 100 µM
OVCAR-5 ovarian
  TGI: > 100 µM
KM20L2 colon
  TGI: > 100 µM
OVCAR-4 ovarian
  TGI: > 100 µM
M14 melanoma
  TGI: > 100 µM
HL-60(TB) leukemia
  TGI: > 100 µM
HT29 colon
  TGI: > 100 µM
786-0 renal
  TGI: > 100 µM
TK-10 renal
  TGI: > 100 µM
CCRF-CEM leukemia
  TGI: > 100 µM
LOX IMVI melanoma
  TGI: > 100 µM
NCI-H23 lung
  TGI: > 100 µM
K-562 leukemia
  TGI: > 100 µM
SN12C renal
  TGI: > 100 µM
UO-31 renal
  TGI: > 100 µM
MALME-3M melanoma
  TGI: > 100 µM
CAKI-1 renal
  TGI: > 100 µM
COLO 205 colon
  TGI: > 100 µM
SK-MEL-28 melanoma
  TGI: > 100 µM
IGROV1 ovarian
  TGI: > 100 µM
